Laboratory results published in patent US7572765B2, “Conformationally constrained parathyroid hormone (PTH) analogs” (The General Hospital Corporation, priority 2001, dated 2009).
Square brackets hold non-standard residues; d marks the D form. Ends that are not written are not given here. Peptide text beside a SMILES is read from it. hArg = N=C(N)NCCCC[C@H](N)C(=O)O; Nle = CCCC[C@H](N)C(=O)O; Aib = CC(C)(N)C(=O)O

Assays:
human P1R [1] = biological target: T1, human P1R (Homo sapiens, UniProt Q03431); test: Competition binding in HKRK-B28 cells; details: for Binding IC50: HKRK-B28 cells, tracer 125I-[M]PTH(1-21)amide, 4 h at 4° C., N.B. = no binding detected at 10 μm peptide
T1 construct: expressed in transfected cells; host or cells: HKRK-B28 (porcine kidney LLC-PK1, stably transfected)
T1 sequence (Q03431 27-593): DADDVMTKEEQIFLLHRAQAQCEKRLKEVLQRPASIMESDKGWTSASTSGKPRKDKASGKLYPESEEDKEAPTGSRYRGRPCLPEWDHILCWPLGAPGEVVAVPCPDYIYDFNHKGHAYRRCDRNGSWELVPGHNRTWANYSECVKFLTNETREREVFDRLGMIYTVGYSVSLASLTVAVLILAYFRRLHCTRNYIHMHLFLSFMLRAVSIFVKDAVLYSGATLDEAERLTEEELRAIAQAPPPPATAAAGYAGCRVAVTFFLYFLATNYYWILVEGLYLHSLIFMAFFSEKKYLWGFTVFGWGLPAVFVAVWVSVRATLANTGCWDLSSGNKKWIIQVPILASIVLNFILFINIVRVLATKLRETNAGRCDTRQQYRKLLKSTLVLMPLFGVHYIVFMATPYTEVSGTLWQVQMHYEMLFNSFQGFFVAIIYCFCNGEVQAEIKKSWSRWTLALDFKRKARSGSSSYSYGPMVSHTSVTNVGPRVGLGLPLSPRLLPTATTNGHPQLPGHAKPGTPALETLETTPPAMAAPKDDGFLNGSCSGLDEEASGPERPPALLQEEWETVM
Method: (§1) Cell Culture. The cell line HKRK-B28 (Takasu, H., et al., J. Bone Miner. Res. 14:11-20 (1999)) was derived from the porcine kidney cell line, LLC-PK1 by stable transfection with plasmid DNA encoding the human P1R and expresses ˜280,000 receptors per cell. These cells, as well as COS-7 cells and SaOS-2-B10 cells, were cultured at […] in T-75 flasks ([…]) in Dulbecco's modified Eagle's medium (DMEM) supplemented with fetal bovine serum (10%), penicillin G (20 units/ml), streptomycin sulfate (20 μg/ml) and amphotericin B (0.05 μg/ml) in a humidified atmosphere containing 5% CO2. Stock solutions of EGTA/trypsin and antibiotics were from GIBCO; fetal bovine serum was from Hyclone Laboratories (Logan, Utah). COS-7 cells sub-cultured in 24-well plates were transfected with plasmid DNA (200 ng per well) encoding the wild-type human P1R or truncated human P1R deleted for residues (24-181) (Shimizu, M., et al., J. Biol. Chem. 275:21836-21843 (2000)) that was purified by cesium chloride/ethidium bromide density gradient centrifugation, and FuGENE 6 transfection reagent (Roche Indianapolis Ind.) according to the manufacturer's recommended procedure. All cells, in 24-well plates, were treated with fresh media and shifted to 33° C. for 12 to 24 h prior to assay.
Competition Binding. Binding reactions were performed with HKRK-B28 cells or in COS-7 cells in 24-well plates. The cells were rinsed with 0.5 mL of binding buffer, and then treated successively with 100 μL binding buffer, 100 μL of binding buffer containing various amounts of unlabeled competitor ligand, and 100 μL of binding buffer containing ca. 100,000 cpm of ^125I-[M]PTH(1-21) or ^125I-[Aib^1,3,M]PTH(1-21)} (ca. 26 fmol; final volume=300 μL). Incubations were 4 to 6 h at 4° C., at which time near equilibrium conditions were attained. Cells were then placed on ice, the binding medium was removed, and the monolayer was rinsed three times with 0.5 mL of cold binding buffer. The cells were subsequently lysed with 0.5 mL […] and counted for radioactivity. For each tracer and in each experiment, the non-specific binding was determined as the radioactivity that bound in the presence of the same unlabeled peptide at a concentration of 1 μM, and was ˜1% of total radioactivity added for each tracer. The maximum specific binding (B0) was the total radioactivity bound in the absence of competing ligand, corrected for nonspecific binding, and for each tracer, ranged from 8% to 20% of the total radioactivity added. Nonlinear regression was used to calculate binding IC50 values (see below). Scatchard transformations of homologous competition binding data derived from studies with 26 fmol of ^125I-[Aib^1,3,M]PTH(1-21) were employed for estimations of apparent equilibrium dissociation constant (kDapps) and total number of ligand binding sites (Bmax), assuming a single class of binding sites and equal affinities of the iodinated and non iodinated ligand.
(§2) Data Calculation. Calculations were performed using Microsoft® Excel. Nonlinear regression analyses of binding and cAMP dose-response data were performed using the four-parameter equation: yp=Min+[(Max−Min)/(1+(IC50/x)^slope)]. The Excel Solver function was utilized for parameter optimization, as described previously (Carter, P. H., et al., Endocrinology 140: 4972-4981 (1999); Bowen, W. P., and Jerman, J. C., Trends in Pharmacol. Sci. 16: 413-417 (1995)). Differences between paired data sets were statistically evaluated using a one-tailed Student's t-test, assuming unequal variances for the two sets.
The P1R-binding properties of these analogs were assayed in competition studies performed in […]. In previous studies, PTH(1-14) binding could not be detected using ^125I-PTH(1-34) and related N-terminally intact and relatively unmodified radioligands (Luck, M. D., et al., Molecular Endocrinology 13:670-680 (1999)). […]

human P1R [2] = biological target: T1, human P1R; test: cAMP stimulation in HKRK-B28 cells; format: cell-based; details: for cAMP EMax(obs.): basal 4.0 ± 0.1 pmole/well not subtracted
Method: as §1
cAMP Stimulation. Stimulation of cells with peptide analogs was performed in 24-well plates. Cells were rinsed with 0.5 mL of binding buffer (50 mM Tris-HCI, […], 5 mM KCl, 2 mM CaCl2, 5% heat-inactivated horse serum, 0.5% fetal bovine serum, adjusted to pH 7.5 with HCl) and treated with 200 μL of cAMP assay buffer (Delbecco's modified Eagle's medium containing 2 mM 3-isobutyl-1-methylxanthine, 1 mg/mL bovine serum albumin, 35 mM Hepes-NaOH, pH 7.4) and 100 μL of binding buffer containing varying amounts of peptide analog (final volume=300 μL). The medium was removed after incubation for 30 to 60 minutes at room temperature, and the cells were frozen on dry ice, lysed with 0.5 mL 50 mM HCl, and refrozen ([…]). The cAMP content of the diluted lysate was determined by radioimmunoassay. The EC50 response values were calculated using nonlinear regression (see below).
as §2

[3] = Circular dichroism spectroscopy (helical content); format: physicochemical
Method: Circular Dichroism. Circular Dichroism spectra were recorded on a Jasco model 710 spectropolarimeter; peptides were analyzed at a concentration of20 μM in 50 mM sodium phosphate buffer pH 7.4, or the same buffer containing 2,2,2-trifluoroethanol at 20% (v/v). Spectroscopic scans were preformed at 20° C. and at wavelengths between […], with data recored at each 1 nM interval. The spectral bandwidth was 1.5 nM and 8 scans were accumulated and averaged for each sample. At each wavelength, the mean residue elipticity [θ×100/l×C×n); where θ is the raw elipticity value (in dimensions of millidegree), l is the sample path length, C=is the molar peptide concentration, and n is the number of residues in the peptide (Bowen, W. P., and Jerman, J. C., Trends in Pharmacol. Sci. 16: 413-417 (1995)). The helical content of each peptide was estimated by dividing [θ] observed at 222 nM for that peptide by −28,100, which is the reported [θ]222obs for a model helical decapeptide (Bowen, W. P., and Jerman, J. C., Trends in Pharmacol. Sci. 16: 413-417 (1995)).
Circular dichroism (CD) spectroscopy was used to analyze the potential effects that the Aib substitutions had on peptide secondary structure when the peptides were free in solution. Samples were analyzed in both aqueous phosphate buffer and in phosphate buffer containing 2,2,2-trifloroethanol, an organic solvent which promotes helical structure in oligopeptides, including PTH peptide fragments (Pellegrini, M., et al., J. Biol. Chem. 273:10420-10427 (1998); Gronwald, W., et al., Biol. Chem. Hoppe Seyler 377:175-186 (1996); Barden, J. A., and Kemp, B. E., Biochemistry 32:7126-7132 (1993)). In phosphate buffer, the helical content of each peptide, estimated from the elipticity observed at 222 nM, was small (≦16%); however, [Aib^1,3,M]PTH(1-14) contained nearly twice as much helix as did [M]PTH(1-14) (16% and 8.1% respectively), as did [Aib^1,3,M]PTH(1-1l), as compared to […] (13% and 7.5% respectively, Table 4). […] The higher helical contents of these two peptides were evident not only from the negative elipticities at […] and 222 nM, but also from the positive elipticities at 192 nM (FIG. 6).

CSCC[C@H](NC(=O)[C@H](CC(C)C)NC(=O)[C@H](CCC(N)=O)NC(=O)C(C)(C)NC(=O)[C@H](CCC(=O)O)NC(=O)[C@H](C)NC(=O)[C@@H](NC(=O)[C@H](C)N)C(C)C)C(=O)N[C@@H](Cc1c[nH]cn1)C(=O)N[C@@H](CCC(N)=O)C(=O)N[C@@H](CCCCNC(=N)N)C(=O)N[C@@H](C)C(=O)N[C@@H](CCCCN)C(=O)N[C@@H](Cc1c[nH]c2ccccc12)C(N)=O [Aib-5] (H-AVAE[Aib]QLMHQ[hArg]AKW-NH2)
Binding IC50 (human P1R [1]): N.B.
EC50 (human P1R [2]): 66 µM
cAMP EMax(obs.) (human P1R [2]): 169 ± 18 pmole/well

CC[C@H](C)[C@H](NC(=O)[C@H](CCC(=O)O)NC(=O)[C@H](C)NC(=O)[C@@H](NC(=O)[C@H](C)N)C(C)C)C(=O)N[C@@H](CCC(N)=O)C(=O)N[C@@H](CC(C)C)C(=O)NC(C)(C)C(=O)N[C@@H](Cc1c[nH]cn1)C(=O)N[C@@H](CCC(N)=O)C(=O)N[C@@H](CCCCNC(=N)N)C(=O)N[C@@H](C)C(=O)N[C@@H](CCCCN)C(=O)N[C@@H](Cc1c[nH]c2ccccc12)C(N)=O [Aib-8] (H-AVAEIQL[Aib]HQ[hArg]AKW-NH2)
Binding IC50 (human P1R [1]): N.B.
cAMP EMax(obs.) (human P1R [2]): 34 ± 7 pmole/well

CC[C@H](C)[C@H](NC(=O)[C@H](CCC(=O)O)NC(=O)[C@H](C)NC(=O)[C@@H](NC(=O)[C@H](C)N)C(C)C)C(=O)N[C@@H](CCC(N)=O)C(=O)N[C@@H](CC(C)C)C(=O)N[C@@H](CCSC)C(=O)NC(C)(C)C(=O)N[C@@H](CCC(N)=O)C(=O)N[C@@H](CCCCNC(=N)N)C(=O)N[C@@H](C)C(=O)N[C@@H](CCCCN)C(=O)N[C@@H](Cc1c[nH]c2ccccc12)C(N)=O [Aib-9] (H-AVAEIQLM[Aib]Q[hArg]AKW-NH2)
Binding IC50 (human P1R [1]): N.B.
cAMP EMax(obs.) (human P1R [2]): 51 ± 8 pmole/well

CC[C@H](C)[C@H](NC(=O)[C@H](CCC(=O)O)NC(=O)[C@H](C)NC(=O)[C@@H](NC(=O)[C@H](C)N)C(C)C)C(=O)N[C@@H](CCC(N)=O)C(=O)N[C@@H](CC(C)C)C(=O)N[C@@H](CCSC)C(=O)N[C@@H](Cc1c[nH]cn1)C(=O)N[C@@H](CCC(N)=O)C(=O)NC(C)(C)C(=O)N[C@@H](C)C(=O)N[C@@H](CCCCN)C(=O)N[C@@H](Cc1c[nH]c2ccccc12)C(N)=O [Aib-11] (H-AVAEIQLMHQ[Aib]AKW-NH2)
Binding IC50 (human P1R [1]): N.B.
EC50 (human P1R [2]): 67 µM
cAMP EMax(obs.) (human P1R [2]): 96 ± 18 pmole/well

CC[C@H](C)[C@H](NC(=O)[C@H](CCC(=O)O)NC(=O)[C@H](C)NC(=O)[C@@H](NC(=O)[C@H](C)N)C(C)C)C(=O)N[C@@H](CCC(N)=O)C(=O)N[C@@H](CC(C)C)C(=O)N[C@@H](CCSC)C(=O)N[C@@H](Cc1c[nH]cn1)C(=O)N[C@@H](CCC(N)=O)C(=O)N[C@@H](CCCCNC(=N)N)C(=O)N[C@@H](C)C(=O)N[C@@H](CCCCN)C(=O)NC(C)(C)C(N)=O [Aib-14] (H-AVAEIQLMHQ[hArg]AK[Aib]-NH2)
cAMP EMax(obs.) (human P1R [2]): 273 ± 6 pmole/well

PTH(1-11): unmodified N-terminal PTH(1-11) peptide (SVSEIQLMHNL; Parathyroid hormone; UniProt P01270 32-42, looked up, fragment)
[0]222obs × 10^−3, Phos. ([3]; 20 μM peptide, 50 mM phosphate buffer pH 7.4): −1.8
[0]222obs × 10^−3, Phos + TFE ([3]; 20 μM peptide, 50 mM phosphate buffer with trifluoroethanol (20%)): −8.4
helical residues (%), Phos + TFE ([3]; 50 mM phosphate buffer with trifluoroethanol (20%), from elipticity at 222 nM): 30%
helical residues (%), Phos. ([3]; 50 mM phosphate buffer, from elipticity at 222 nM): 6.5%

^125I-[Ala^3,12Nle^8Gln^10,Har^11,Trp^14,Tyr^15]PTH(1-15)amide (AVAEIQL[Nle]HQ[hArg]AKWY-NH2; also: 125I-labeled, place not given here) [reference compound]
binding of radiolabeled peptide to HKRK-B28 cells (in words) (human P1R [1]; direct binding of the radioligand): did not bind detectably
